System: HeLa cells
Test: siRNA pretreatment with or without low dose doxorubicin, HeLa cell survival (drug sensitization)
Format: cell-based
Conditions: 50 fold lower than the LD90, dose response experiment
Experimental: FIG. 6A is a graph illustrating percent cell survival following treatment with a gene-specific siRNA, with or without a low dose drug. Seventy-six test siRNAs (2 or 3 siRNAs per gene plus 6 control siRNAs), targeting 29 novel candidate genes, were transfected into HeLa cells.
FIG. 6B is an enlarged section of the graph in FIG. 6A.
FIG. 6C is a graph of the same data of FIG. 6A plotted as a percentage increase in sensitivity relative to the untreated sample.
An analysis was conducted by a similar method as described in FIG. 4, with two main differences. First, a different set of siRNAs were used. The siRNAs targeted 29 novel candidate genes that were previously identified by cDNA microarray and CGH analysis to be overexpressed and amplified in 14 breast cancer cell lines (Hyman et al., Cancer Res. 62:6240-5, 2002). There were 76 test siRNAs (2 or 3 siRNA per gene plus 6 control siRNAs). The second difference in this study was that the number of experiments was doubled to include a low dose doxorubicin (“Dox”) treatment. Four replicates of the no-drug control, and four replicates of the low dose drug were prepared for a total of 8 wells treated with each siRNA. The HeLa cells were transfected with siRNA as described above, and the cells were allowed to incubate for 24 hours to achieve silencing of the targeted genes. […]

COc1cccc2c1C(=O)c1c(O)c3c(c(O)c1C2=O)C[C@@](O)(C(=O)CO)C[C@@H]3O[C@H]1C[C@H](N)[C@H](O)[C@H](C)O1 [Dox, doxorubicin]
effect of low dose Dox on HeLa cell survival: no effect
